These compounds were tested against STING (Homo sapiens, UniProt Q86WV6, G230A/H232R/R293Q/R71H) (assay: STING reporter assay in THP1-Dual KO-IFNAR2 cells (2′3′cGAMP stimulation, luciferase reporter)). Conditions: 15 μM 2′3′cGAMP stimulation, 24 h, read-out: Pharmaron, THP1_IFNAR2 STING 24 h Luci Normalized: GeoMean EC50.
Assay type: cell-based
Method in brief: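 THP1-Dual KO-IFNAR2 cells (2×10E6 cells/mL) with compounds at 0.0017-100 μM final, stimulated with 15 μM final 2′3′cGAMP delivered by Lipofectamine 2000; 24 h at 37 °C. Luciferase in supernatant read with QUANTI-Luc Plus; EC50 derived from luminescence.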

STING, sequence (Q86WV6 whole entry R71H/G230A/H232R/R293Q): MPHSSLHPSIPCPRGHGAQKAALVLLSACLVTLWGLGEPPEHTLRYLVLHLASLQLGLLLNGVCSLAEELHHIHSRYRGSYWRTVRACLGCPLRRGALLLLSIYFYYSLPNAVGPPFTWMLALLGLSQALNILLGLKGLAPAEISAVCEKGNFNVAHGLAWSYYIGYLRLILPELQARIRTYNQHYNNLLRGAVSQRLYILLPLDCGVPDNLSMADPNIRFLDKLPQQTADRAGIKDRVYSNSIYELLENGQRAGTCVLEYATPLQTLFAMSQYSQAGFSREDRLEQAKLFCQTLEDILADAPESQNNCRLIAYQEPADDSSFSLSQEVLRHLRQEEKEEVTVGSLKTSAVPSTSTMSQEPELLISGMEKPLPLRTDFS

EC50 | Structure (SMILES)
5000 to 100000 nM | CC1(C(=O)Nc2c[nH]c3ccc(OCc4ccc(C(F)(F)F)cc4)cc23)CCNCC1 [Compound 528, 4-methyl-N-(5-((4-(trifluoromethyl)benzyl)oxy)-1H-indol-3-yl)piperidine-4-carboxamide]
40 to 200 nM | C[C@]1(C(=O)Nc2c[nH]c3ccc(OCCc4ccc(C(F)(F)F)cc4)cc23)C[C@H](CO)C1 [Compound 530, trans-3-(hydroxymethyl)-1-methyl-N-(5-(4-(trifluoromethyl)phenethoxy)-1H-indol-3-yl)cyclobutane-1-carboxamide]
40 to 200 nM | C[C@]1(C(=O)Nc2c[nH]c3ccc(OCCc4ccc(C(F)(F)F)cc4)cc23)C[C@@H](CO)C1 [Compound 531, cis-3-(hydroxymethyl)-1-methyl-N-(5-(4-(trifluoromethyl)phenethoxy)-1H-indol-3-yl)cyclobutane-1-carboxamide]
5000 to 100000 nM | CC(=O)Nc1c[nH]c2ccc(CC(Cc3ccc(C(F)(F)F)cc3)C(=O)O)cc12 (centres unmarked) [Compound 532, 3-(3-acetamido-1H-indol-5-yl)-2-(4-(trifluoromethyl)benzyl)propanoic acid]
40 to 200 nM | O=C(Nc1c[nH]c2ccc(OCCc3ccc(C(F)(F)F)cc3)cc12)[C@H]1C[C@@H](CO)C1 [Compound 533, cis-3-(hydroxymethyl)-N-(5-(4-(trifluoromethyl)phenethoxy)-1H-indol-3-yl)cyclobutane-1-carboxamide]
40 to 200 nM | O=C(Nc1c[nH]c2ccc(OCCc3ccc(C(F)(F)F)cc3)cc12)[C@H]1C[C@H](CO)C1 [Compound 534, trans-3-(hydroxymethyl)-N-(5-(4-(trifluoromethyl)phenethoxy)-1H-indol-3-yl)cyclobutane-1-carboxamide]
5000 to 100000 nM | CC(=O)Nc1c[nH]c2ccc(CCOc3cccc(C(C)N(C)C)c3)cc12 (centres unmarked) [Compound 536, N-(5-(2-(3-(1-(dimethylamino)ethyl)phenoxy)ethyl)-1H-indol-3-yl)acetamide]
1000 to 5000 nM | CC(=O)Nc1c[nH]c2ccc(C(C)C[C@@H]3C[C@@H]4CN(CC(F)(F)F)C[C@@H]4C3)cc12 (stereo partly drawn) [Compound 538, N-(5-(1-((3aR,5r,6aS)-2-(2,2,2-trifluoroethyl)octahydrocyclopenta[c]pyrrol-5-yl)propan-2-yl)-1H-indol-3-yl)acetamide]
1000 to 5000 nM | CC(=O)Nc1c[nH]c2ccc(CCC[C@@H]3C[C@@H]4CN(CC(F)(F)F)C[C@@H]4C3)cc12 [Compound 539, N-(5-(3-((3aR,5r,6aS)-2-(2,2,2-trifluoroethyl)octahydrocyclopenta[c]pyrrol-5-yl)propyl)-1H-indol-3-yl)acetamide]
1000 to 5000 nM | CC1(C(=O)Nc2c[nH]c3ccc(CC(O)Cc4ccc(C(F)(F)F)cn4)cc23)CC1 (centres unmarked) [Compound 540, N-(5-(2-hydroxy-3-(5-(trifluoromethyl)pyridin-2-yl)propyl)-1H-indol-3-yl)-1-methylcyclopropane-1-carboxamide]
5000 to 100000 nM | CC(=O)Nc1c[nH]c2ccc(CCOc3cccnc3C(F)(F)F)cc12 [Compound 541, N-(5-(2-((2-(trifluoromethyl)pyridin-3-yl)oxy)ethyl)-1H-indol-3-yl)acetamide]
200 to 1000 nM | CC1(C(=O)Nc2c[nH]c3ccc(OC[C@H]4C[C@@H]5CN(CC(F)(F)F)C[C@@H]5C4)cc23)COC1 [Compound 542, 3-methyl-N-(5-(((3aR,5s,6aS)-2-(2,2,2-trifluoroethyl)octahydrocyclopenta[c]pyrrol-5-yl)methoxy)-1H-indol-3-yl)oxetane-3-carboxamide]
200 to 1000 nM | CC(=O)Nc1c[nH]c2ccc(CCOc3ccc(C(F)(F)F)c(Br)c3)cc12 [Compound 543, N-(5-(2-(3-bromo-4-(trifluoromethyl)phenoxy)ethyl)-1H-indol-3-yl)acetamide]
200 to 1000 nM | CC(=O)Nc1c[nH]c2ccc(CCOc3ccc(C(F)(F)F)cc3Br)cc12 [Compound 544, N-(5-(2-(2-bromo-4-(trifluoromethyl)phenoxy)ethyl)-1H-indol-3-yl)acetamide]
40 to 200 nM | [2H][13C]([2H])([2H])C(=O)Nc1c[nH]c2ccc(CCOc3ccc(C(F)(F)F)cc3)cc12 [Compound 545, N-(5-(2-(4-(trifluoromethyl)phenoxy)ethyl)-1H-indol-3-yl)acetamide-2-13C-2,2,2-d3]
1000 to 5000 nM | CC(=O)Nc1c[nH]c2ccc(CCOc3ccc(C(F)(F)F)cc3)c(Br)c12 [Compound 546, N-(4-bromo-5-(2-(4-(trifluoromethyl)phenoxy)ethyl)-1H-indol-3-yl)acetamide]
200 to 1000 nM | CC(=O)Nc1c[nH]c2ccc(CCOc3ccccc3OCC(F)(F)F)cc12 [Compound 547, N-(5-(2-(2-(2,2,2-trifluoroethoxy)phenoxy)ethyl)-1H-indol-3-yl)acetamide]
200 to 1000 nM | C=CCc1ccccc1OCCc1ccc2[nH]cc(NC(C)=O)c2c1 [Compound 548, N-(5-(2-(2-allylphenoxy)ethyl)-1H-indol-3-yl)acetamide]
1000 to 5000 nM | CC(=O)CCc1ccc(OCCc2ccc3[nH]cc(NC(C)=O)c3c2)cc1 [Compound 549, N-(5-(2-(4-(3-oxobutyl)phenoxy)ethyl)-1H-indol-3-yl)acetamide]
1000 to 5000 nM | CC(=O)Nc1c[nH]c2ccc(CCOc3cnc4c(C(F)(F)F)cccc4c3)cc12 [Compound 555, N-(5-(2-((8-(trifluoromethyl)quinolin-3-yl)oxy)ethyl)-1H-indol-3-yl)acetamide]
5000 to 100000 nM | CC(=O)Nc1c[nH]c2ccc(CCOc3ccc(Cl)nc3C)cc12 [Compound 556, N-(5-(2-((6-chloro-2-methylpyridin-3-yl)oxy)ethyl)-1H-indol-3-yl)acetamide]
1000 to 5000 nM | CC(=O)Nc1c[nH]c2ccc(CCOc3cnc(Cl)c(C)c3)cc12 [Compound 557, N-(5-(2-((6-chloro-5-methylpyridin-3-yl)oxy)ethyl)-1H-indol-3-yl)acetamide]
200 to 1000 nM | CC(=O)Nc1c[nH]c2ccc(CCOc3ccccc3)cc12 [Compound 558, N-(5-(2-phenoxyethyl)-1H-indol-3-yl)acetamide]
200 to 1000 nM | CC(=O)Nc1c[nH]c2ccc(CCOc3cc(Cl)nc(C(F)(F)F)c3)cc12 [Compound 559, N-(5-(2-((2-chloro-6-(trifluoromethyl)pyridin-4-yl)oxy)ethyl)-1H-indol-3-yl)acetamide]
1000 to 5000 nM | CC(=O)Nc1c[nH]c2ccc(CCOc3cnc4cccc(Cl)c4c3)cc12 [Compound 560, N-(5-(2-((5-chloroquinolin-3-yl)oxy)ethyl)-1H-indol-3-yl)acetamide]
40 to 200 nM | CC1(C(=O)Nc2c[nH]c3ccc(OCCc4ccc(C(F)(F)F)cc4)cc23)CN(CC(F)F)C1 [Compound 561, 1-(2,2-difluoroethyl)-3-methyl-N-(5-(4-(trifluoromethyl)phenethoxy)-1H-indol-3-yl)azetidine-3-carboxamide]

Structure (SMILES) | EC50
CC1(C(=O)Nc2c[nH]c3ccc(O[C@H]4C[C@@H](c5ccc(C(F)(F)F)cc5)C4)cc23)CCNCC1 [Compound 529, 4-methyl-N-(5-(cis-3-(4-(trifluoromethyl)phenyl)cyclobutoxy)-1H-indol-3-yl)piperidine-4-carboxamide] | 5000 to 100000 nM
O=C(Nc1c[nH]c2ccc(O[C@H]3C[C@@H](c4ccc(C(F)(F)F)cc4)C3)cc12)C1CNC1 [Compound 537, N-(5-(cis-3-(4-(trifluoromethyl)phenyl)cyclobutoxy)-1H-indol-3-yl)azetidine-3-carboxamide] | 5000 to 100000 nM
O=C(Nc1c[nH]c2ccc(O[C@H]3C[C@@H](c4ccc(C(F)(F)F)nc4)C3)cc12)[C@H]1C[C@@H](CO)C1 [Compound 550, cis-3-(hydroxymethyl)-N-(5-(cis-3-(6-(trifluoromethyl)pyridin-3-yl)cyclobutoxy)-1H-indol-3-yl)cyclobutane-1-carboxamide] | 200 to 1000 nM
O=C(Nc1c[nH]c2ccc(O[C@H]3C[C@@H](c4ccc(C(F)(F)F)nc4)C3)cc12)[C@H]1C[C@H](CO)C1 [Compound 551, trans-3-(hydroxymethyl)-N-(5-(cis-3-(6-(trifluoromethyl)pyridin-3-yl)cyclobutoxy)-1H-indol-3-yl)cyclobutane-1-carboxamide] | 200 to 1000 nM
O=C(Nc1c[nH]c2ccc(O[C@H]3C[C@H](c4ccc(C(F)(F)F)nc4)C3)cc12)[C@H]1C[C@@H](CO)C1 [Compound 552, cis-3-(hydroxymethyl)-N-(5-(trans-3-(6-(trifluoromethyl)pyridin-3-yl)cyclobutoxy)-1H-indol-3-yl)cyclobutane-1-carboxamide] | 200 to 1000 nM
O=C(Nc1c[nH]c2ccc(O[C@H]3C[C@H](c4ccc(C(F)(F)F)nc4)C3)cc12)[C@H]1C[C@H](CO)C1 [Compound 553, trans-3-(hydroxymethyl)-N-(5-(trans-3-(6-(trifluoromethyl)pyridin-3-yl)cyclobutoxy)-1H-indol-3-yl)cyclobutane-1-carboxamide] | 200 to 1000 nM
O=C(Nc1c[nH]c2ccc(O[C@H]3C[C@H](c4ccc(C(F)(F)F)cc4)C3)cc12)C1CC(Cl)C1 (stereo partly drawn) [Compound 554, 3-chloro-N-(5-(trans-3-(4-(trifluoromethyl)phenyl)cyclobutoxy)-1H-indol-3-yl)cyclobutane-1-carboxamide] | 200 to 1000 nM
N#C[C@H]1C[C@@H]1C(=O)Nc1c[nH]c2ccc(O[C@H]3C[C@H](c4ccc(C(F)(F)F)cc4)C3)cc12 [Compound 562, (1s,2s)-2-cyano-N-(5-((trans)-3-(4-(trifluoromethyl)phenyl)cyclobutoxy)-1H-indol-3-yl)cyclopropane-1-carboxamide] | 200 to 1000 nM
CC1(C)CC1C(=O)Nc1c[nH]c2ccc(O[C@H]3C[C@H](c4ccc(C(F)(F)F)cc4)C3)cc12 (stereo partly drawn) [Compound 563, 2,2-dimethyl-N-(5-(trans-3-(4-(trifluoromethyl)phenyl)cyclobutoxy)-1H-indol-3-yl)cyclopropane-1-carboxamide] | 40 to 200 nM
